Measurements taken from US20250297232A1, “BACTERIAL MYELOPEROXIDASE-CATALASE AND APPLICATIONS THEREOF” (UNIVERSITÉ DE BORDEAUX, priority 2022, published 2025).
Where “and” joins values, the source holds several entries; their conditions need not be identical. Identical values can stand only once. Like-named read-outs stand apart in the source and are kept apart here.

How the values were obtained:
[1] = tested on: Rhodopirellula baltica RbMPO, wild type, SEQ ID NO: 1; conditions: 0.5 nM wt RbMPO, 79 μM H2O2, 37° C., pH5.5
Experimental: The plate reader was configured to run a 10 min kinetics at 430 nm with the following ABTS concentration range: 0, 0.1, 0.2, 0.5, 1, 2, 5, 10, 15, 20, 30 and 40 mM.

[2] = tested on: Rhodopirellula baltica RbMPO variant H407A (of SEQ ID NO: 1); conditions: read-out: KM H2O2; H407A 1 μM; H2O2 range, 500 mM NaCl, 10 μM APF, 37° C., pH7.5
[3] = tested on: Rhodopirellula baltica RbMPO variant N317M (of SEQ ID NO: 1); conditions: N317M 1 μM, H2O2 range, 500 mM NaCl, 10 μM APF, 37° C., pH7.5
Text: (§1) The chlorination activity of myeloperoxidases can be determined using the aminophenyl fluorescein (APF) probe. One can indeed detect the oxidation of APF (non-fluorescent) by HOCl into fluorescein, a fluorescent molecule that is detectable at λex=485 nm and λem=525 nm. According to such test, the fluorescence measured is proportional to the quantity of fluorescein, which itself is proportional to the quantity of HOCl produced by the myeloperoxidase.
(§2) Measurements of chlorination activity were herein performed in Corning 384-well clear-bottom (flat-bottom) plates with a reaction volume of 20 μL, in triplicate at 37° C., and in a 50 mM NaPi buffer at pH7.5. […] A 10 to 30 minutes kinetic was performed for each range value and the fluorescence intensity was compared to that of the standard fluorescein range. Thus, the measured fluorescence is proportional to the amount of fluorescein, which in turn is proportional to the amount of HOCl produced by the RbMPOs.
(§3) The slopes were measured at the onset of the reaction in order to be in initial velocity. From these values, it was possible to calculate the kss with the following equation: […]

[4] = tested on: Rhodopirellula baltica RbMPO variant D202A, E316A (of SEQ ID NO: 1)
Text: as §1, §2, §3

[5] = target: Rhodopirellula baltica RbMPO, wild type, SEQ ID NO: 1; test: Pre-steady-state kinetics: compound I formation and return to native state (stopped-flow, 412 nm); assay type: biochemical; conditions: for Ki: H2O2 excess; for Vreturn (Sreturn/[enzyme]) / kreturn max (return to native state) / kreturn/K1/2 (return to native state): wt RbMPO […], H2O2 20 μM
Experimental: In the first moment after an enzyme is mixed with a substrate, no product has been formed and no intermediates exist. The study of the next few milliseconds of the reaction is called pre-steady-state kinetics.
Kinetic parameters under pre-steady-state condition were performed with a Biologic SFM400 stopped-flow at 412 nm, 37° C. and with 50 mM sodium phosphate buffer at pH7.5. […] An exponential linear fit was applied to each kinetic using the following formula: […]
where p1 corresponds to the exponential magnitude, p2 to the decay time Tau (s) and
The heme Soret band is at 412 nm for the native Fe^III iron form, which is why the decrease in absorbance was followed at this particular wavelength as a function of time. The rate constant was measured using the A412nm curves as a function of time (data not shown). By applying Eq.4 to the exponential part of each kinetic, the values of Tau (s) were determined and the kobs (s^−1) were calculated.
The return of the enzyme to its native state was studied by the impact of increasing concentrations of (pseudo)-halides substrates on compound I (FIG. 9B). […] It is the time difference (s) between the two characteristic steps that allowed the calculation of the values of the Vreturn(μM^−1.s^−1) values: […]

[6] = tested on: Rhodopirellula baltica RbMPO, wild type, SEQ ID NO: 1; conditions: for kcatapp/KMappNaSCN (NaBr range) / kss/[Cl^−] (k2): 79 μM H2O2; for kss/[Cl^−] (k2): NaCl range
Experimental: (§6) Initial rate measurements under steady state conditions were performed with a BioLogic SFM400 stopped-flow by using a single-mixing mode and an Xe/Hg lamp and a TC100/10 cell. […] At least five 120 s shots were monitored for each value of the substrate range with the following sample rates: 20 μs, 20 ms, 20 ms with 2000 points per period. Slopes were calculated from the average of the shorts for each concentration and kss (s^−1) were determined from the slopes using the following formula:
(§7) The collected data were analysed with Origin software, then saturation curves for each substrate were fitted either by non-linear regression with or without inhibition by excess of substrate (Eq. 1 and 2) with [S]the substrate of interest, or by linear regression (Eq. 3) with a the slope and b the y-intercept.
(§8) The stopped-flow was used to define the steady-state kinetic parameters of RbMPOs. […] From the averages of the curves obtained for each shot, the slopes in Abs.s^−1 were calculated and then converted into kss by the following relation:

[7] = tested on: Rhodopirellula baltica RbMPO variant Q199A (of SEQ ID NO: 1); conditions: Q199A 1 μM, H2O2 range, 500 mM NaCl, 10 μM APF, 37° C., pH7.5
[8] = tested on: Rhodopirellula baltica RbMPO, wild type, SEQ ID NO: 1; conditions: 37° C.; for Km: read-out: KM (catalase, H2O2); for Ki: read-out: Ki (catalase, H2O2)
Experimental: Catalase activity was measured using the stopped-flow set-up, which was configured to measure absorbance decay at 240 nm and at 37° C.

[9] = tested on: Rhodopirellula baltica RbMPO variant N317M (of SEQ ID NO: 1)
Experimental: as §6, §7, §8

[10] = tested on: Rhodopirellula baltica RbMPO variant E316A (of SEQ ID NO: 1)
Experimental: as §6, §7, §8

[11] = tested on: Rhodopirellula baltica RbMPO variant H203A (of SEQ ID NO: 1)
Experimental: as §6, §7
(§9) From the averages of the curves obtained for each shot, the slopes in Abs.s^−1 were calculated and then converted into kss by the following relation:

[12] = tested on: Rhodopirellula baltica RbMPO variant D202A, E316A (of SEQ ID NO: 1); remark: listed apart in the source
Experimental: as §6, §7, §9

[13] = tested on: Rhodopirellula baltica RbMPO variant Q199A (of SEQ ID NO: 1)
Experimental: as §6, §7, §8

[14] = tested on: Rhodopirellula baltica RbMPO variant H407A (of SEQ ID NO: 1)
Experimental: as §6, §7, §9

[15] = tested on: Rhodopirellula baltica RbMPO variant D202A (of SEQ ID NO: 1); conditions: pH 7.5
Experimental: as §6, §7, §8

[16] = tested on: Rhodopirellula baltica RbMPO, wild type, SEQ ID NO: 1; test: Heme reconstitution (apo to holo) by tryptophan fluorescence quenching; assay type: binding; conditions: wt RbMPO 1 μM; 25° C., pH7.5
Experimental: (§4) Tryptophan fluorescence quenching and recovery can be used to monitor the protein confirmation changes from an “apo” to an “holo” form upon addition of its coenzyme (herein heme).
(§5) The Trp fluorescence quenching experiment was performed in a spectrofluorometric FP8300 with a temperature-controlled stirred-cell (25° C.). […] Sample dilutions were performed in a 50 mM pH7.5 sodium phosphate buffer.

[17] = tested on: Rhodopirellula baltica RbMPO variant N317M (of SEQ ID NO: 1); test: as above; assay type: binding; conditions: N317M 1 μM; 25° C., pH7.5
Experimental: as §4, §5

[18] = target: Rhodopirellula baltica RbMPO variant D202A, E316A (of SEQ ID NO: 1); test: as above; assay type: binding; conditions: E316A 1 μM, 25° C., pH7.5
Experimental: as §4, §5

[19] = tested on: Rhodopirellula baltica RbMPO variant H203A (of SEQ ID NO: 1); test: as above; assay type: binding; conditions: H203A 1 μM; 25° C., pH7.5
Experimental: as §4, §5

[20] = tested on: Rhodopirellula baltica RbMPO variant D202A (of SEQ ID NO: 1); test: as above; assay type: binding; conditions: D202A 1 μM; 25° C., pH7.5
Experimental: as §4, §5

[21] = tested on: Rhodopirellula baltica RbMPO variant H407A (of SEQ ID NO: 1); test: as above; assay type: binding; conditions: H407A 1 μM; 25° C., pH7.5
Experimental: as §4, §5

[22] = tested on: Rhodopirellula baltica RbMPO variant Q199A (of SEQ ID NO: 1); test: as above; assay type: binding; conditions: Q199A 1 μM; 25° C., pH7.5
Experimental: as §4, §5

[23] = tested on: Rhodopirellula baltica RbMPO variant E316A (of SEQ ID NO: 1); test: as above; assay type: binding; conditions: E316A 1 μM; 25° C., pH7.5
Experimental: as §4, §5

[24] = H2O2, wt RbMPO 1.78 μM, 37° C., pH7.5
[25] = wt, 300 nM enzyme, 79 μM H2O2, 37° C., pH 7.5

CCn1c(=NN=c2sc3cc(S(=O)(=O)O)ccc3n2CC)sc2cc(S(=O)(=O)O)ccc21 [ABTS, 2,2′-azino-bis(3-ethylbenzothiazoline-6-sulfonic acid)]
k2 (peroxidase, ABTS) [1]: 10620 ± 1510 M⁻¹ s⁻¹

OO [H2O2, hydrogen peroxide]
Km [2]: 270 ± 90 µM | Km ([3]; read-out: KM H2O2): 320 ± 90 µM | Ki ([3]; read-out: Ki H2O2): 48.1 ± 15.4 mM | Km ([4]; read-out: KM H2O2, E316A 1 μM, H2O2 range, 500 mM NaCl, 10 μM APF, 37° C., pH7.5): 220 ± 60 µM | Ki ([4]; read-out: Ki H2O2, E316A 1 μM, H2O2 range, 500 mM NaCl, 10 μM APF, 37° C., pH7.5): 96.3 ± 31.9 mM | Kd [5, 24]: 0.0569 ± 0.0201 mM | kobsmax (compound I formation) [5, 24]: 57.09 ± 8.60 s⁻¹ | Ki ([5]; read-out: Ki (compound I formation, text)): 10.9 mM | Ki ([5]; wt RbMPO 1.78 μM, 37° C., pH7.5, read-out: Ki (compound I formation)): 10.9 ± 3 mM | kcatapp (H2O2) ([6]; H2O2 range, Br 100 mM, 267 nM wt RbMPO): 113.72 ± 72.11 s⁻¹ | kcatapp (H2O2) ([6]; H2O2 range, SCN 5 mM, 267 nM wt RbMPO): 203.24 ± 45.46 s⁻¹ | Km ([6]; read-out: KMapp (H2O2), H2O2 range, Br 100 mM, 267 nM wt RbMPO): 230 ± 210 µM | Km ([6]; read-out: KMapp (H2O2), H2O2 range, SCN 5 mM, 267 nM wt RbMPO): 120 ± 40 µM | Km ([7]; read-out: KM H2O2): 490 ± 150 µM | Ki ([7]; read-out: Ki H2O2): 18.3 ± 5.34 mM | kcat (catalase, H2O2) ([8]; pH 7, 2 μM wt RbMPO): 1.62 ± 0.86 s⁻¹ | kcat (catalase, H2O2) ([8]; pH 7.5, 2 μM wt RbMPO): 56.64 ± 20.62 s⁻¹ | Km ([8]; pH 7, 2 μM wt RbMPO): 40 ± 40 µM | Km ([8]; pH 7.5, 2 μM wt RbMPO): 170 ± 110 µM | Ki ([8]; pH 7, 2 μM wt RbMPO): 0.54 ± 0.57 mM | Ki ([8]; pH 7.5, 2 μM wt RbMPO): 1.07 ± 0.7 mM

I [I^−]
Vreturn (Sreturn/[enzyme]) ([5]; 37° C., pH7.5): 16.66 ± 0.65 s⁻¹ | kreturn max (return to native state) ([5]; 37° C., pH7.5): 31.65 ± 1.23 µM/s

[Br-].[Na+] [NaBr]
kss/[SCN^−] (NaBr range) [9]: 2.22 ± 1.20 M⁻¹ s⁻¹ | activity (NaBr range) [10]: No activity | Vreturn (Sreturn/[enzyme]) ([5]; 37° C., pH7.5): 11.11 ± 0.57 s⁻¹ | kreturn max (return to native state) ([5]; 37° C., pH7.5): 21.11 ± 1.09 µM/s | kreturn/K1/2 (return to native state) ([5]; 37° C., pH7.5): 607.77 ± 161.51 M⁻¹ s⁻¹ | Km ([6]; read-out: KMapp (NaBr), wt, 300 nM enzyme, 79 μM H2O2, 37° C., pH 7.5): 133000 ± 32800 µM | kcatapp (NaBr) [6, 25]: 76.33 ± 5.12 s⁻¹ | kcatapp/KMappNaSCN (NaBr range) ([6]; wt, 300 nM enzyme): 576.86 ± 172.22 M⁻¹ s⁻¹ | kcatapp/KMappNaSCN (NaBr range) ([6]; wt, 300 nM enzyme, listed as Br^−): 576.96 ± 172.22 M⁻¹ s⁻¹ | kss/[SCN^−] (NaBr range) [11]: 73.94 ± 15.07 M⁻¹ s⁻¹ | activity (NaBr range) [12]: No activity | kss/[SCN^−] (NaBr range) [13]: 78.19 ± 22.00 M⁻¹ s⁻¹

[Cl-].[Na+] [NaCl]
Vreturn (Sreturn/[enzyme]) ([5]; 37° C., pH7.5): 1.37 ± 0.19 s⁻¹ | kreturn max (return to native state) ([5]; 37° C., pH7.5): 2.61 ± 0.37 µM/s | kreturn/K1/2 (return to native state) ([5]; 37° C., pH7.5): 5169 ± 4872 M⁻¹ s⁻¹ | kss/[Cl^−] (k2) ([6]; wt, 300 nM enzyme): 5.46 ± 0.67 M⁻¹ s⁻¹ | kss/[Cl^−] (k2) ([6]; wt, 300 nM enzyme, listed as Cl^−): 4.48 ± 0.64 M⁻¹ s⁻¹

N#C[S-].[Na+] [NaSCN]
k2 (NaSCN) ([9]; pH 7.5): 1074 ± 53 M⁻¹ s⁻¹ | k2 (NaSCN) ([10]; pH 7.5): 1936 ± 374 M⁻¹ s⁻¹ | Vreturn (Sreturn/[enzyme]) ([5]; 37° C., pH7.5): 13.65 ± 0.51 s⁻¹ | kreturn max (return to native state) ([5]; 37° C., pH7.5): 25.94 ± 0.97 µM/s | activity in presence of SCN [14]: not active | Km ([6]; read-out: KMapp (NaSCN), wt, 300 nM enzyme, 79 μM H2O2, 37° C., pH 7.5): 510 ± 80 µM | kcatapp (NaSCN) [6, 25]: 56.90 ± 6.92 s⁻¹ | kcatapp (NaSCN) [15]: 83.54 ± 12.04 s⁻¹ | Km ([15]; read-out: KMapp (NaSCN)): 980 ± 310 µM | activity (NaSCN range) [13]: No activity

C=CC1=C(C)c2cc3[nH]c(cc4nc(cc5[nH]c(cc1n2)c(C)c5CCC(=O)O)C(CCC(=O)O)=C4C)c(C)c3C=C.[Fe+3] [heme]
k2 (heme reconstitution) [16]: 1430 ± 74.4 M⁻¹ s⁻¹ | k2 (heme reconstitution) [17]: 470.2 ± 57.8 M⁻¹ s⁻¹ and 472.2 ± 57.8 M⁻¹ s⁻¹ | Kd [18]: 0.0109 ± 0.00614 mM | Kobsmax (heme reconstitution) [18]: 0.28 ± 0.06 s⁻¹ | k2 (heme reconstitution) [19]: 1840 ± 167 M⁻¹ s⁻¹ | k2 (heme reconstitution) [20]: 302+23.4 M−1 · s−1 | k2 (heme reconstitution) [21]: 1320 ± 18.9 M⁻¹ s⁻¹ | k2 (heme reconstitution) [22]: 1720 ± 133 M⁻¹ s⁻¹ | k2 (heme reconstitution) [23]: 418 ± 34 M⁻¹ s⁻¹
